We go through one compound from US5905073A, “Use of 2-hydroxy-5-phenylazobenzoic acid derivatives as colon cancer chemopreventative and chemotherapeutic agents” (priority 1996, dated 1999).

Each structure is given as a SMILES string.

For data set [1] the following is noted: cited from earlier work.
In data set [2] the test system is aberrant crypt foci induced by azoxymethane (AOM). The data set can be described thus: Inhibition of aberrant crypt progression / multiplicity, treatment started 24 hours after second AOM injection. Type of data set: in vivo, rat. The text has this:
Inhibition of Aberrant Crypt Progression. The data shown in FIG. 4 were collected from the distal 7-8 cm of colonic tissue. At these early time points, this area contained over 80% of the total aberrant crypt foci. An additional study was therefore designed to examine a longer time point, assess the distribution throughout the entire 25 cm of colon and determine if the drug treatment could be initiated after the second AOM injection.
In the second study, groups of 8 animals received two injections of azoxymethane one week apart. Balsalazide treatment was then initiated with one group 24 hours following the second injection. Six weeks later the animals were processed for aberrant crypt analysis. Crypts were stained in situ by rectal instillation of a 0.2% solution of methylene blue for 15 min under anesthesia. Animals were then exsanguinated, colonic tissue from the anus to the caecum was excised, cleaned and fixed for 2 hours in 2% paraformaldehyde. Crypts were counted by viewing at a magnification of 40×. In addition to collecting data on the number of foci, data was also collected on the multiplicity of aberrant crypts per foci.
Previous studies by Pretlow et al (Pretlow et al. (1992) Carcinogenesis 13:1509-1512) have reported on the relationship between aberrant crypt multiplicity and ultimate tumor development using the same carcinogenesis model. […] The data from the above experiment was analyzed to determine the effect of balsalazide on the aberrant crypt multiplicity. […] For foci with 1-3 crypts the mean inhibition ranged from 57-61% (p<0.003, Fischer exact test) while the number of foci with 4 or more crypts was reduced by a mean of 72-76% (p<0.001). When the results on the number of foci containing 4 or more crypts are compared with those containing 3 or less the difference remains statistically significant at the p<0.022 level using the Fischer exact test.

[3] abbreviates: 6 weeks after second AOM injection, 8 animals.

In the case of `O=C(O)CCNC(=O)c1ccc(/N=N/c2ccc(O)c(C(=O)O)c2)cc1` [Balsalazide], in data set [1] (human, in vivo), the “gastric or duodenal ulceration” value is “no evidence of gastric or duodenal ulceration” and the gastrointestinal tolerance result is reported as “excellent gastrointestinal tolerance”. Moreover, in data set [1] (over 500 patients, some for as long as three years), the nephrotoxicity entry is reported as “no evidence of nephrotoxicity”. In addition, in data set [2] (setting [3]), the “mean number of foci, Total” value is listed as 63.75; the “mean number of foci, multiplicity 1” value was 10.3; the “mean number of foci, multiplicity 2” value is 19.1; the “mean number of foci, multiplicity 3” value was found to be 15.3. For the same compound, in data set [2] (setting [3]), the “mean number of foci, multiplicity 4” value is 8.5 and the “mean number of foci, multiplicity 5 to 8” value was found to be 9.6. In addition, in data set [2] (given beginning 24 hours following second AOM injection, 6 weeks), the “inhibition of aberrant crypt foci overall” value was “approximately 60%”. The “mean reduction of number of foci with 4 or more crypts” value in data set [2] (p<0.001) is recorded as 72-76%. In data set [2] (p<0.003, Fischer exact test), the “mean inhibition of foci with 1-3 crypts” value was 57-61%. Besides, the “reduction of foci with the greatest number of aberrant crypts relative to foci containing 2-3” value in data set [2] (rat, in vivo) is given as “almost twice”.
